In US20260274829A1, “NEW E3 UBIQUITIN LIGASE LIGAND, PROTEIN DEGRADATION AGENT AND USE THEREOF” (GLUETACS THERAPEUTICS (SHANGHAI) CO., LTD., priority 2023, published 2026):

Molecular target: T1, human Cereblon WT GST-tagged protein (Homo sapiens, UniProt Q96SW2)
T1 construct: purchased CISBIO 64BDCRBNPEH
Assay: CRBN binding, HTRF CEREBLON BINDING kit
Conditions: CRBN binding; for IC50: HTRF CEREBLON BINDING kit
Description: The CEREBLON BINDING kits (specification: 10,000 tests; product number: Catalog #64BDCRBNPEH; CISBIO company) was used to determine the CRBN binding ability of the compounds to be tested through a HTRF method (homogeneous time-resolved fluorescence). The specific methods are as follows: • 1. […] Then, 2.5 μL of human Cereblon WT GST-tagged protein solution was added to each well. Finally, 5 μL of the thoroughly mixed Thalidomide-Re reagent and GST Eu antibody working solution were added to each of the aforementioned wells. […] The blank control wells were sequentially added with 2.5 μL of diluent #9 (1×) solution, 2.5 μL of binding buffer, and 5 μL of thoroughly mixed Thalidomide-Re reagent and GST Eu antibody working solution. • 4. After sealing and incubating the solutions in the aforementioned wells at room temperature for 3 hours, the absorbance values at emission wavelengths of 620 nm and 665 nm were detected by the HTRF method using a Spark microplate reader (V3.1 SP1).
The corresponding CRBN binding inhibition rate was calculated using the following method:
[formula] [formula] [formula] • Note: OD 665 nmcompound is the absorbance value of each well of the compounds to be tested of the present disclosure at an emission wavelength of 665 nm. • OD 620 nmcompound is the absorbance value of each well of the compounds to be tested of the present disclosure at an emission wavelength of 620 nm. • OD 665 nmcontrol is the absorbance value of the blank control well at an emission wavelength of 665 nm. • OD 620 nmcontrol is the absorbance value of the blank control well at an emission wavelength of 620 nm. • OD 665 nmStd0 is the absorbance value of the solvent control well at an emission wavelength of 665 nm. • OD 620 nmStd0 is the absorbance value of the solvent control well at an emission wavelength of 620 nm.

T1 sequence (Q96SW2 whole entry): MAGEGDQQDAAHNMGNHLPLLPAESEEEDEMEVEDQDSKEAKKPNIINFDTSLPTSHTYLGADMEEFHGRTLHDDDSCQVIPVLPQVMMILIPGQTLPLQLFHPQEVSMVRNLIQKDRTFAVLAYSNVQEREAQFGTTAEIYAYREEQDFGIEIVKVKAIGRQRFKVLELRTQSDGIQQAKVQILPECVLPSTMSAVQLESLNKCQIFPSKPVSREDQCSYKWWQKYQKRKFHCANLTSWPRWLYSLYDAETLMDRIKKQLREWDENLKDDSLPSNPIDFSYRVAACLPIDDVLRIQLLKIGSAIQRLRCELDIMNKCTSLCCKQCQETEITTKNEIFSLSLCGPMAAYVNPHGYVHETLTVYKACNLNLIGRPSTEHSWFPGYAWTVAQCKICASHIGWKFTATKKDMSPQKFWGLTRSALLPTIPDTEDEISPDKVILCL

| Compound | IC50 [nM] | inhibition at 0.5 µM (HTRF, compound at 0.5 μM, read-out: Inhibition rate (%) at 0.5 μM) [%] | inhibition at 2 µM (HTRF, compound at 2 μM, read-out: Inhibition rate (%) at 2 μM) [%] |
| --- | --- | --- | --- |
| CN(Cc1ccc(N2CCC(=O)NC2=O)cc1)C1CCN(c2ccc(-c3cc(F)c4c(c3)C(=O)N(C(C(=O)Nc3nccs3)c3ncn5c3CCC5)C4)cc2)CC1 (stereo not drawn) [GT-05219, 2-(6,7-dihydro-5H-pyrrolo[1,2-c]imidazol-1-yl)-2-(6-(4-(4-((4-(2,4-dioxotetrahydropyrimidin-1(2H)-yl)benzyl)(methyl)amino)piperidin-1-yl)phenyl)-4-fluoro-1-oxoisoindolin-2-yl)-N-(thiazol-2-yl)acetamide] | < 500 | – | – |
| CC(=O)c1c(C)c2cnc(Nc3ccc(N4CCN(Cc5ccc(N6CCC(=O)NC6=O)cn5)CC4)cn3)nc2n(C2CCCC2)c1=O [GT-06578, 1-(6-((4-(6-((6-acetyl-8-cyclopentyl-5-methyl-7-oxo-7,8-dihydropyrido[2,3-d]pyrimidin-2-yl)amino)pyridin-3-yl)piperazin-1-yl)methyl)pyridin-3-yl)dihydropyrimidine-2,4(1H,3H)-dione] | 1000 to 1900 | – | – |
| CN(Cc1ccc(N2CCC(=O)NC2=O)cn1)C1CCN(c2ccc(Nc3ncc4nc(Nc5ccccc5)n(C5CCCC5)c4n3)cc2)CC1 [GT-07093, 1-(6-(((1-(4-((9-cyclopentyl-8-(phenylamino)-9H-purin-2-yl)amino)phenyl)piperidin-4-yl)(methyl)amino)methyl)pyridin-3-yl)dihydropyrimidine-2,4(1H,3H)-dione] | 500 to 1000 | – | – |
| CC(C)(O)c1cc2nn(C3CCN(Cc4cccc(N5CCC(=O)NC5=O)c4)CC3)cc2cc1NC(=O)c1cccc(C(F)(F)F)n1 [GT-05755, N-(2-(1-(3-(2,4-dioxotetrahydropyrimidin-1(2H)-yl)benzyl)piperidin-4-yl)-6-(2-hydroxypropan-2-yl)-2H-indazol-5-yl)-6-(trifluoromethyl)picolinamide] | 500 to 1000 | – | – |
| O=C1CCN(c2cccc(CN3C[C@H]4C[C@@H]3CN4c3ccc(-c4cc(F)c5c(c4)C(=O)N(C(C(=O)Nc4nccs4)c4ncn6c4CCC6)C5)cc3)c2)C(=O)N1 (stereo partly drawn) [GT-06178, 2-(6,7-dihydro-5H-pyrrolo[1,2-c]imidazol-1-yl)-2-(6-(4-((1R,4R)-5-(3-(2,4-dioxotetrahydropyrimidin-1(2H)-yl)benzyl)-2,5-diazabicyclo[2.2.1]heptan-2-yl)phenyl)-4-fluoro-1-oxoisoindolin-2-yl)-N-(thiazol-2-yl)acetamide] | < 500 | – | – |
| COc1cc2nn(C3CCN(Cc4ccc(N5CCC(=O)NC5=O)cc4F)CC3)cc2cc1NC(=O)c1cccc(C(F)(F)F)n1 [GT-04777, N-(2-(1-(4-(2,4-dioxotetrahydropyrimidin-1(2H)-yl)-2-fluorobenzyl)piperidin-4-yl)-6-methoxy-2H-indazol-5-yl)-6-(trifluoromethyl)picolinamide] | 1000 to 1900 | – | – |
| Nc1nnc(-c2ccccc2O)cc1N1CCN(Cc2ccc(N3CCC(=O)NC3=O)cn2)CC1 [GT-05016, 1-(6-((4-(3-amino-6-(2-hydroxyphenyl)pyridazin-4-yl)piperazin-1-yl)methyl)pyridin-3-yl)dihydropyrimidine-2,4(1H,3H)-dione] | 500 to 1000 | – | – |
| CN(C)C(=O)c1cc2cnc(Nc3ccc(N4CCN(Cc5ccc(C6CCC(=O)NC6=O)cc5)CC4)cn3)nc2n1C1CCCC1 (stereo not drawn) [GT-06339, 7-cyclopentyl-2-((5-(4-(4-(2,6-dioxopiperidin-3-yl)benzyl)piperazin-1-yl)pyridin-2-yl)amino)-N,N-dimethyl-7H-pyrrolo[2,3-d]pyrimidine-6-carboxamide] | < 500 | – | – |
| C=CC(=O)N1CCC[C@@H](n2nc(-c3ccc(Oc4ccccc4)cc3)c3c(N)ncnc32)C1 [ibrutinib, Ibrutinib, reference compound] | > 10000 | – | – |
| CC(C)(O)c1cc2nc(C3CCN(Cc4cccc(N5CCC(=O)NC5=O)c4)CC3)sc2cc1NC(=O)c1cccc(C(F)(F)F)n1 [GT-05765, N-(2-(1-(3-(2,4-dioxotetrahydropyrimidin-1(2H)-yl)benzyl)piperidin-4-yl)-5-(2-hydroxypropan-2-yl)benzo[d]thiazol-6-yl)-6-(trifluoromethyl)picolinamide] | 500 to 1000 | – | – |
| O=C1CCN(c2ccc(CN3C[C@@H]4C[C@H]3CN4c3ccc(-c4cc(F)c5c(c4)C(=O)N(C(C(=O)Nc4nccs4)c4ncn6c4CCC6)C5)cc3)nc2)C(=O)N1 (stereo partly drawn) [GT-05119, 2-(6,7-dihydro-5H-pyrrolo[1,2-c]imidazol-1-yl)-2-(6-(4-((1S,4S)-5-((5-(2,4-dioxotetrahydropyrimidin-1(2H)-yl)pyridin-2-yl)methyl)-2,5-diazabicyclo[2.2.1]heptan-2-yl)phenyl)-4-fluoro-1-oxoisoindolin-2-yl)-N-(thiazol-2-yl)acetamide] | 500 to 1000 | – | – |
| COc1ccc2cn(C3CCN(Cc4ccc(C5CCC(=O)NC5=O)c(F)c4)CC3)nc2c1NC(=O)c1cccc(C(F)(F)F)c1 (stereo not drawn) [GT-04814, N-(2-(1-(4-(2,6-dioxopiperidin-3-yl)-3-fluorobenzyl)piperidin-4-yl)-6-methoxy-2H-indazol-7-yl)-3-(trifluoromethyl)benzamide] | 500 to 1000 | – | – |
| C=CC(=O)N1CCC(c2ccc(C(N)=O)c(-c3ccc(Oc4ccccc4)cc3)n2)CC1 [Orelabrutinib, reference compound] | > 10000 | – | – |
| CC1(C)CCC(c2ccc(Cl)cc2)=C(CN2CCN(c3ccc(C(=O)NS(=O)(=O)c4ccc(N[C@H](CCN5CC6CCC(C5)N6Cc5ccc(C6CCC(=O)NC6=O)cc5)CSc5ccccc5)c(S(=O)(=O)C(F)(F)F)c4)cc3)CC2)C1 (stereo partly drawn) [GT-07858, 4-(4-((4′-chloro-4,4-dimethyl-3,4,5,6-tetrahydro-[1,1′-biphenyl]-2-yl)methyl)piperazin-1-yl)-N-((4-(((2R)-4-(8-(4-(2,6-dioxopiperidin-3-yl)benzyl)-3,8-diazabicyclo[3.2.1]octan-3-yl)-1-(phenylthio)butan-2-yl)amino)-3-((trifluoromethyl)sulfonyl)phenyl)sulfonyl)benzamide] | – | 30 to 40 | 60 to 80 |
| Cc1cc(Nc2ncc(Cl)c(Nc3ccccc3S(=O)(=O)C(C)C)n2)c(OC(C)C)cc1C1CCN(Cc2cncc(C3CCC(=O)NC3=O)c2)CC1 (stereo not drawn) [GT-07601, 3-(5-((4-(4-((5-chloro-4-((2-(isopropylsulfonyl)phenyl)amino)pyrimidin-2-yl)amino)-5-isopropoxy-2-methylphenyl)piperidin-1-yl)methyl)pyridin-3-yl)piperidine-2,6-dione] | 1000 to 1900 | – | – |
| O=C1CCN(c2cccc(CN3CCC(n4cc(NC(=O)c5coc(-c6ccnc(NCC7CC7)c6)n5)c(C(F)F)n4)CC3)c2)C(=O)N1 [GT-04965, 2-(2-((cyclopropylmethyl)amino)pyridin-4-yl)-N-(3-(difluoromethyl)-1-(1-(3-(2,4-dioxotetrahydropyrimidin-1(2H)-yl)benzyl)piperidin-4-yl)-1H-pyrazol-4-yl)oxazole-4-carboxamide] | 500 to 1000 | – | – |
| O=C1CCC(Nc2cccc(CN3C[C@@H]4C[C@H]3CN4c3ccc(-c4cc(F)c5c(c4)C(=O)N(C(C(=O)Nc4nccs4)c4ncn6c4CCC6)C5)cc3)c2)C(=O)N1 (stereo partly drawn) [GT-05118, 2-(6,7-dihydro-5H-pyrrolo[1,2-c]imidazol-1-yl)-2-(6-(4-((1S,4S)-5-(3-((2,6-dioxopiperidin-3-yl)amino)benzyl)-2,5-diazabicyclo[2.2.1]heptan-2-yl)phenyl)-4-fluoro-1-oxoisoindolin-2-yl)-N-(thiazol-2-yl)acetamide] | 500 to 1000 | – | – |
| O=C1CCN(c2ccc(CN3CCC(N4CCN(c5ccc6c(c5)nc(NC(=O)c5cccc(C(F)(F)F)c5)n6[C@H]5CC[C@@H](CO)CC5)CC4)CC3)cc2)C(=O)N1 [GT-05021, N-(5-(4-(1-(4-(2,4-dioxotetrahydropyrimidin-1(2H)-yl)benzyl)piperidin-4-yl)piperazin-1-yl)-1-((1s,4s)-4-(hydroxymethyl)cyclohexyl)-1H-benzo[d]imidazol-2-yl)-3-(trifluoromethyl)benzamide] | 1000 to 1900 | – | – |
| CC(C)(O)c1cc2nn(C3CCN(Cc4ccc(N5CCC(=O)NC5=O)cc4)CC3)cc2cc1NC(=O)c1cccc(C(F)(F)F)n1 [GT-05754, N-(2-(1-(4-(2,4-dioxotetrahydropyrimidin-1(2H)-yl)benzyl)piperidin-4-yl)-6-(2-hydroxypropan-2-yl)-2H-indazol-5-yl)-6-(trifluoromethyl)picolinamide] | 500 to 1000 | – | – |
| O=C1CCC(c2ccc(CN3CCN(Cc4ccc5c(c4)nc(NC(=O)c4cccc(C(F)(F)F)c4)n5[C@H]4CC[C@@H](CO)CC4)CC3)cc2)C(=O)N1 (stereo partly drawn) [GT-04978, N-(5-((4-(4-(2,6-dioxopiperidin-3-yl)benzyl)piperazin-1-yl)methyl)-1-((1s,4s)-4-(hydroxymethyl)cyclohexyl)-1H-benzo[d]imidazol-2-yl)-3-(trifluoromethyl)benzamide] | 1000 to 1900 | – | – |
